Results reported in patent publication US11396502B2, “Substituted heterocyclic derivatives as PI3K inhibitors” (Incyte Corporation, priority 2018, dated 2022).
Structures can show the parent of a compound that is named as a salt. Where two headings read alike, the source gives them in different places.

Columns and labels:
PI3Kγ (p110γ) = PI3Kγ (p110γ) (Homo sapiens (Human), UniProt P48736); assay: PI3K-γ scintillation proximity assay; type: biochemical; conditions: recombinant human PI3Kγ 13 nM, 20 μM PIP2, 2 μM ATP, 120 min, room temperature
Chain of PI3Kγ (p110γ) (P48736 whole entry): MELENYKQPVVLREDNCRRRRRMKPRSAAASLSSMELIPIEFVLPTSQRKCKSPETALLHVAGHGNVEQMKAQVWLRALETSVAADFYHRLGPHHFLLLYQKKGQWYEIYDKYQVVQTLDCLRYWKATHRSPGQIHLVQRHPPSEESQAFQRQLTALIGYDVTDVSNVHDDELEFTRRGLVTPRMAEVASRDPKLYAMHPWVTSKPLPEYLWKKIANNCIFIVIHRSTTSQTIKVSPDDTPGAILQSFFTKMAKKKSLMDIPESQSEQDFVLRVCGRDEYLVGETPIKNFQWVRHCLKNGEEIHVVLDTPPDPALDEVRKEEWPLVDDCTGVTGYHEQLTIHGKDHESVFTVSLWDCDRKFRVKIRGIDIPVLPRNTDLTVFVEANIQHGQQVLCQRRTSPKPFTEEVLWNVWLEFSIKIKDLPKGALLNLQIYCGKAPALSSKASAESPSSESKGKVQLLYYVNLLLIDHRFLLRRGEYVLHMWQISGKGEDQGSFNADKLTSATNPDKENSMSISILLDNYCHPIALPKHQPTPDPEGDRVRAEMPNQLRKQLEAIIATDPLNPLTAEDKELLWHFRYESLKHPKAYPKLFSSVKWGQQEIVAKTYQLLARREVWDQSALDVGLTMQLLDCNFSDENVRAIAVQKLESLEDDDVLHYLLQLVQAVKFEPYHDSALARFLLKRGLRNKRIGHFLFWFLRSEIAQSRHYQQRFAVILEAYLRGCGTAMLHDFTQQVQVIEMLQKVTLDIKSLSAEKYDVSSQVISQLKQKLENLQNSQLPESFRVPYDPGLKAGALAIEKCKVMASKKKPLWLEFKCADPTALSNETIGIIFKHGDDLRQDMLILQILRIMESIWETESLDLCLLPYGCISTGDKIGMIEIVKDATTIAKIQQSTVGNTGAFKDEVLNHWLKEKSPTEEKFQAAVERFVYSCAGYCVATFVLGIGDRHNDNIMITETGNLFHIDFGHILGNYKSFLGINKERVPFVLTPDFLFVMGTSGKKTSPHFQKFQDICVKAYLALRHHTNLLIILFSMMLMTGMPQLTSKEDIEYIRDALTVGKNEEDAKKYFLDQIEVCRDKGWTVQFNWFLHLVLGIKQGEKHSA
Text: Example B. PI3K-γ Scintillation Proximity Assay Materials: [γ-^33P]ATP (10 mCi/mL) and Wheat Germ Agglutinin (WGA) YSi SPA Scintillation Beads was purchased from Perkin Elmer (Waltham, Mass.). Lipid kinase substrate, D-myo-Phosphatidylinositol 4,5-bisphosphate (PtdIns(4,5)P2)D (+)-sn-1,2-di-O-octanoylglyceryl, 3-O-phospho linked (PIP2), CAS 204858-53-7, was purchased from Echelon Biosciences (Salt Lake City, Utah). PI3Kγ (p110γ) Recombinant Human Protein was purchased from Life technology (Grand Island, N.Y.). ATP, MgCl2, DTT, EDTA, MOPS and CHAPS were purchased from Sigma Aldrich (St. Louis, Mo.). The kinase reaction was conducted in polystyrene 384-well Greiner Bio-one white plate from Thermo Fisher Scientific in a final volume of 25 μL. Inhibitors were first diluted serially in DMSO and added to the plate wells before the addition of other reaction components. The final concentration of DMSO in the assay was 2%. The PI3Kγ assay was carried out at room temperature in 20 mM MOPS, pH 6.7, 10 mM MgCl2, 5 mM DTT and CHAPS 0.03%. Reactions were initiated by the addition of ATP, the final reaction mixture consisted of 20 μM PIP2, 2 μM ATP, 0.5 μCi [γ-^33P] ATP, 13 nM PI3Kγ. Reactions were incubated for 120 min and terminated by the addition of 40 μL SPA beads suspended in quench buffer: 163 mM potassium phosphate pH 7.8, 20% glycerol, 25 mM EDTA. The final concentration of SPA beads is 1.0 mg/mL. After the plate sealing, plates were shaken overnight at room temperature and centrifuged at 1500 rpm for 10 min, the radioactivity of the product was determined by scintillation counting on Topcount (Perkin-Elmer). IC50 determination was performed by fitting the curve of percent of the solvent control activity versus the log of the inhibitor concentration using the GraphPad Prism 6.0 software.

PI3Kδ (p110δ/p85α) = PI3Kδ (p110δ/p85α) (Homo sapiens (Human), UniProt O00329); assay: PI3Kδ scintillation proximity assay; type: biochemical; conditions: recombinant human PI3Kδ 3.4 nM, 20 μM PIP2, 2 μM ATP, 120 min, room temperature
Chain of PI3Kδ (p110δ/p85α) (O00329 whole entry): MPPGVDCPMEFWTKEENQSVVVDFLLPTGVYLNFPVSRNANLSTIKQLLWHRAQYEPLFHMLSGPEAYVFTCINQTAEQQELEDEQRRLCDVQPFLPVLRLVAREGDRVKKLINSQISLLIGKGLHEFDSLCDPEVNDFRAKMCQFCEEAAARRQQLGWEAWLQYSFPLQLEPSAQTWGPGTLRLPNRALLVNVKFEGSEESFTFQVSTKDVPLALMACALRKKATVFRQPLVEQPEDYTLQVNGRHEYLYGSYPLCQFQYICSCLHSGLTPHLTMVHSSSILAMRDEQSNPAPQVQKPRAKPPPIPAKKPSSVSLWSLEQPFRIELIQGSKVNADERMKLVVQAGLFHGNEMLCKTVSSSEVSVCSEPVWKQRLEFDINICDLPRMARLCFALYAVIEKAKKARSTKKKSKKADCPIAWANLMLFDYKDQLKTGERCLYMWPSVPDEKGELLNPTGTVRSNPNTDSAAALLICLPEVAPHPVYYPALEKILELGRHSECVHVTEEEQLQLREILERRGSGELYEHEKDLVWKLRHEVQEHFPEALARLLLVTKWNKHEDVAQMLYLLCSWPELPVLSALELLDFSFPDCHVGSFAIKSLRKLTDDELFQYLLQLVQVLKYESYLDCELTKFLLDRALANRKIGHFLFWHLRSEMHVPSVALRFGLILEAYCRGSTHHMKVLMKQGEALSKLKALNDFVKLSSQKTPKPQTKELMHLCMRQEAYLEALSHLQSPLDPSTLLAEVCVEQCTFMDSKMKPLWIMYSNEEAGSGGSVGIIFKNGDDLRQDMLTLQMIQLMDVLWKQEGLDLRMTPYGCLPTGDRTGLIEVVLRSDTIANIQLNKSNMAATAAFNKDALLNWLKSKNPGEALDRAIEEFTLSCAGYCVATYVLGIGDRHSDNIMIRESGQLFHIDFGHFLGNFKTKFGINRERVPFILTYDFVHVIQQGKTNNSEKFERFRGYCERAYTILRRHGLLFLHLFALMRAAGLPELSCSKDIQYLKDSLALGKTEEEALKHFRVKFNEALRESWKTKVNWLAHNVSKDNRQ
Chain of PI3Kδ (p110δ/p85α) (P27986 whole entry partner): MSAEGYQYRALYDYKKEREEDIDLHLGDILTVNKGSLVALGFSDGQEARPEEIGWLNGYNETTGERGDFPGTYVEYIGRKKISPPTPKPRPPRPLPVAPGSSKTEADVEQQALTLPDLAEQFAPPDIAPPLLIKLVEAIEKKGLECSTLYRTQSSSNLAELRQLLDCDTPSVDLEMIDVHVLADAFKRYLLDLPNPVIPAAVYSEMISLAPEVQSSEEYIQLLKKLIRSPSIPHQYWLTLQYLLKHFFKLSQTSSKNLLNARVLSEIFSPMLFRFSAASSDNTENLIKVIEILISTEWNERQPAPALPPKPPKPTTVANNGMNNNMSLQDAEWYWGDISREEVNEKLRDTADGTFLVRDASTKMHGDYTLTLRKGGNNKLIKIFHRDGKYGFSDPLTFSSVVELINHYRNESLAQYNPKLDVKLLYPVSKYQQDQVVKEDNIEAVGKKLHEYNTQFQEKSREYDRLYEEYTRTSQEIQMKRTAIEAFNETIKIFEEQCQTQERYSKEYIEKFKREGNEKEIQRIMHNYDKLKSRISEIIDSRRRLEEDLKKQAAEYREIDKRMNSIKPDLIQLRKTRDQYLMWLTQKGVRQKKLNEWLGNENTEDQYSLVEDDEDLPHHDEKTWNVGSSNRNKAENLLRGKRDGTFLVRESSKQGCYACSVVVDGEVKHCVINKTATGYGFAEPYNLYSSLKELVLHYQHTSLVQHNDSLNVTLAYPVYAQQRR
Text: Example C. PI3Kδ Scintillation Proximity Assay Materials: [γ-^33P]ATP (10 mCi/mL) and Wheat Germ Agglutinin (WGA) YSi SPA Scintillation Beads was purchased from Perkin Elmer (Waltham, Mass.). Lipid kinase substrate, D-myo-Phosphatidylinositol 4,5-bisphosphate (PtdIns(4,5)P2)D (+)-sn-1,2-di-O-octanoylglyceryl, 3-O-phospho linked (PIP2), CAS 204858-53-7, was purchased from Echelon Biosciences (Salt Lake City, Utah). PI3Kδ (p110δ/p85α) Recombinant Human Protein was purchased from Eurofins (St Charles, Mo.). ATP, MgCl2, DTT, EDTA, MOPS and CHAPS were purchased from Sigma Aldrich (St. Louis, Mo.). The kinase reaction was conducted in polystyrene 384-well Greiner Bio-one white plate from Thermo Fisher Scientific in a final volume of 25 μL. Inhibitors were first diluted serially in DMSO and added to the plate wells before the addition of other reaction components. The final concentration of DMSO in the assay was 2%. The PI3Kδ assay was carried out at room temperature in 20 mM MOPS, pH 6.7, 10 mM MgCl2, 5 mM DTT and CHAPS 0.03%. Reactions were initiated by the addition of ATP, the final reaction mixture consisted of 20 μM PIP2, 2 μM ATP, 0.5 μCi [γ-^33P] ATP, 3.4 nM PI3Kδ. Reactions were incubated for 120 min and terminated by the addition of 40 μL SPA beads suspended in quench buffer: 163 mM potassium phosphate pH 7.8, 20% glycerol, 25 mM EDTA. The final concentration of SPA beads is 1.0 mg/mL. After the plate sealing, plates were shaken overnight at room temperature and centrifuged at 1500 rpm for 10 min, the radioactivity of the product was determined by scintillation counting on Topcount (PerkinElmer). IC50 determination was performed by fitting the curve of percent of the solvent control activity versus the log of the inhibitor concentration using the GraphPad Prism 6.0 software.

[1] = test system: Phosphorylated Ribosomal Protein S6 (RPS6) in THP-1 cells; assay: THP-1 RPS6 ELISA assay; type: cell-based, Human; conditions: Homo sapiens
Description: Example A. THP-1 RPS6 ELISA Assay
To measure the Phosphorylated Ribosomal Protein S6 (RPS6) in cell lysates, THP-1 cells (Human Acute Monocytic Leukemia) are purchased from ATCC (Manassas, Va.) and maintained in RPMI with 10% FBS (Gibco/Life Technologies, Carlsbad, Calif.). For the assay, THP-1 cells are serum starved overnight in RPMI, then plated in RPMI (2×10^5 cells/well in 90 μL) into 96-well flat-bottom tissue culture treated plates (Corning, Corning, N.Y.), in the presence or absence of a concentration range of test compounds. Covered plates are incubated for 2 hours at 37° C., 5% CO2 then treated with or without 10 nM MCP-1 (MYBioSource, San Diego, Calif.) for 15 minutes at 37° C., 5% CO2. Plates are centrifuged at 1600 RPM and supernatants are removed. Cells are lysed in Lysis Buffer (Cell Signaling, Danvers, Mass.) with Protease Inhibitor (Calbiochem/EMD, Germany), PMSF (Sigma, St Louis Mo.), HALTS (Thermo Fisher, Rockford, Ill.) for 30 min on wet ice. Cell lysates are frozen at −80° C. before testing. The lysates are tested in the Human/Mouse/Rat Phospho-RPS6 ELISA (R&D Systems, Inc. Minn, Minn.). The plate is measured using a microplate reader (SpectraMax M5—Molecular Devices, LLC Sunnyvale, Calif.) set to 450 nm with a wavelength correction of 540. IC50 determination is performed by fitting the curve of inhibitor percent inhibition versus the log of the inhibitor concentration using the GraphPad Prism 5.0 software.

[2] = THP-1, serum starved THP-1 cells, 2 hours compound, 10 nM MCP-1 for 15 minutes, Phospho-RPS6 ELISA, read-out: PI3Kγ_THP1_RPS6_ELISA IC50
[3] = THP-1, read-out: PI3Kγ_THP1_RPS6_ELISA IC50 (nM)

IC50 (PI3Kγ (p110γ)) [nM]	IC50 (PI3Kδ (p110δ/p85α)) [nM]	IC50 [1, 2] [nM]	SMILES	IC50 [1, 3] [nM]
< 100	500 to 2000	> 1000	Cc1[nH]c(-c2cc(-c3ccc4c(c3)CN([C@@H](C)C3CC3)C4=O)ccn2)nc1C(=O)NC1CCOCC1 [Example 4, (S)-2-(4-(2-(1-Cyclopropylethyl)-1-oxoisoindolin-5-yl)pyridin-2-yl)-5-methyl-N-(tetrahydro-2H-pyran-4-yl)-1H-imidazole-4-carboxamide trifluoroacetate salt]	–
< 100	> 2000	> 1000	Cc1[nH]c(-c2cc(-c3ccc4c(c3)CN([C@@H](C)C3CC3)C4=O)ccn2)nc1C(=O)N(C)C [Example 5, (S)-2-(4-(2-(1-Cyclopropylethyl)-1-oxoisoindolin-5-yl)pyridin-2-yl)-N,N,5-trimethyl-1H-imidazole-4-carboxamide trifluoroacetate salt]	–
< 100	> 2000	> 1000	CNC(=O)c1nc(-c2cc(-c3ccc4c(c3)CN([C@@H](C)C3CC3)C4=O)ccn2)[nH]c1C [Example 6, (S)-2-(4-(2-(1-Cyclopropylethyl)-1-oxoisoindolin-5-yl)pyridin-2-yl)-N,5-dimethyl-1H-imidazole-4-carboxamide trifluoroacetate salt]	–
< 100	500 to 2000	100 to 500	CNC(=O)c1nc(-c2cc(-c3cc4c(c(S(C)(=O)=O)c3)C(=O)N([C@@H](C)C3CC3)C4)ccn2)[nH]c1C [Example 7, (S)-2-(4-(2-(1-Cyclopropylethyl)-7-(methylsulfonyl)-1-oxoisoindolin-5-yl)pyridin-2-yl)-N,4-dimethyl-1H-imidazole-5-carboxamide, trifluoroacetate salt]	–
< 100	100 to 500	500 to 1000	Cc1[nH]c(-c2cc(-c3cc4c(c(S(C)(=O)=O)c3)C(=O)N([C@@H](C)C3CC3)C4)ccn2)nc1C(=O)NC1CCOCC1 [Example 7b, (S)-2-(4-(2-(1-Cyclopropylethyl)-7-(methylsulfonyl)-1-oxoisoindolin-5-yl)pyridin-2-yl)-4-methyl-N-(tetrahydro-2H-pyran-4-yl)-1H-imidazole-5-carboxamide, trifluoroacetate salt]	–
< 100	100 to 500	> 1000	Cc1[nH]c(-c2cc(-c3cc4c(c(S(C)(=O)=O)c3)C(=O)N([C@@H](C)C3CC3)C4)ccn2)nc1C(=O)NC12CC(C1)C2 [Example 7c, (S)-N-(Bicyclo[1.1.1]pentan-1-yl)-2-(4-(2-(1-cyclopropylethyl)-7-(methylsulfonyl)-1-oxoisoindolin-5-yl)pyridin-2-yl)-4-methyl-1H-imidazole-5-carboxamide, trifluoroacetate salt]	–
< 100	100 to 500	100 to 500	Cc1[nH]c(-c2cc(-c3cc4c(c(S(C)(=O)=O)c3)C(=O)N([C@@H](C)C3CC3)C4)ccn2)nc1C(=O)N1CC(F)(F)C1 [Example 7d, (S)-2-(1-Cyclopropylethyl)-5-(2-(5-(3,3-difluoroazetidine-1-carbonyl)-4-methyl-1H-imidazol-2-yl)pyridin-4-yl)-7-(methylsulfonyl)isoindolin-1-one, trifluoroacetate salt]	–
< 100	100 to 500	> 1000	Cc1[nH]c(-c2cc(-c3cc4c(c(S(C)(=O)=O)c3)C(=O)N([C@@H](C)C3CC3)C4)ccn2)nc1C(=O)N1CC(O)C1 [Example 7e, (S)-2-(1-Cyclopropylethyl)-5-(2-(5-(3-hydroxyazetidine-1-carbonyl)-4-methyl-1H-imidazol-2-yl)pyridin-4-yl)-7-(methylsulfonyl)isoindolin-1-one, trifluoroacetate salt]	–
< 100	< 100	100 to 500	Cc1[nH]c(-c2cc(-c3cc4c(c(S(C)(=O)=O)c3)C(=O)N([C@@H](C)C3CC3)C4)ccn2)nc1C(=O)NC12CCC(C#N)(C1)C2 [Example 7h, (S)-N-(4-Cyanobicyclo[2.1.1]hexan-1-yl)-2-(4-(2-(1-cyclopropylethyl)-7-(methylsulfonyl)-1-oxoisoindolin-5-yl)pyridin-2-yl)-4-methyl-1H-imidazole-5-carboxamide, trifluoroacetate salt]	–
< 100	< 100	100 to 500	Cc1[nH]c(-c2cc(-c3cc4c(c(S(C)(=O)=O)c3)C(=O)N([C@@H](C)C3CC3)C4)ccn2)nc1C(=O)NC1CC2(COC2)C1 [Example 7i, (S)-2-(4-(2-(1-Cyclopropylethyl)-7-(methylsulfonyl)-1-oxoisoindolin-5-yl)pyridin-2-yl)-4-methyl-N-(2-oxaspiro[3.3]heptan-6-yl)-1H-imidazole-5-carboxamide, trifluoroacetate salt]	–

SMILES	IC50 (PI3Kγ (p110γ)) [nM]	IC50 (PI3Kδ (p110δ/p85α)) [nM]	IC50 [1, 2] [nM]	IC50 [1, 3] [nM]
Cc1[nH]c(-c2cc(-c3cc4c(c(S(C)(=O)=O)c3)C(=O)N([C@@H](C)C3CC3)C4)ccn2)nc1C(=O)NC(C)C [Example 7a, (S)-2-(4-(2-(1-Cyclopropylethyl)-7-(methylsulfonyl)-1-oxoisoindolin-5-yl)pyridin-2-yl)-N-isopropyl-4-methyl-1H-imidazole-5-carboxamide, trifluoroacetate salt]	< 100	100 to 500	–	< 100
Cc1[nH]c(-c2cc(-c3cc4c(c(S(C)(=O)=O)c3)C(=O)N([C@@H](C)C3CC3)C4)ccn2)nc1C(=O)N1CCC1 [Example 7j, (S)-5-(2-(5-(Azetidine-1-carbonyl)-4-methyl-1H-imidazol-2-yl)pyridin-4-yl)-2-(1-cyclopropylethyl)-7-(methylsulfonyl)isoindolin-1-one, trifluoroacetate salt]	< 100	100 to 500	–	100 to 500
